pKd: −log10 of the molar value.

The assay in a line: Fluorescence Based Assay: The details of the KEAP1 KELCH ThermoFluor® Assay Construct are as follows: Kelch domain of human KEAP 1 (321-624 aa) was used in the assay. The protein was expressed in E. coli with 6His tag that was cleaved prior to receipt for use.ThermoFluor® experiments were carried out using instruments owned by Janssen Research and Discovery, L.L.C. through its acquisition of 3-Dimensional Pharmaceuticals, Inc. 1,8-ANS (Invitrogen) was used as a fluorescent dye. Protein (KEAP Kelch) and compound solutions were dispensed into black 384-well polypropylene PCR microplates (Abgene) and overlayed with silicone oil (1 μL, Fluka, type DC 200) to prevent evaporation.Reference wells contained KEAP Kelch without compounds, and the assay conditions were as follows: 1.1 μM (0.037mg/mL) KEAP Kelch, 80 μM 1,8-ANS, 25 mM PIPES, pH 7.0, 100 mM NaCl, 0.002% Tween-20. A general note: DSF heats the sample and reads unfolding from a dye or from intrinsic fluorescence.
Regarding `Cc1ccc(C(CC(=O)O)c2ccn3c(C(F)(F)F)nnc3c2C)cc1CN1C[C@@H]2CCCCN2c2ncccc2S1(=O)=O` (stereo not given in full), the pKd (in general, −log10 of the Kd, conventionally taken in molar units) is > 9.00. Consider `CCn1nnc2c(C)c(C(CC(=O)O)c3ccc(C)c(CN4CC5(COC5)Oc5ncccc5S4(=O)=O)n3)ccc21` (stereo not given), for which the pKd was > 9.00. Take `Cc1ccc([C@@H](c2ccn3c(C(F)(F)F)nnc3c2C)C(C)(C)C(=O)O)nc1CN1CC2(CC2)Oc2nc(OCCN3CCCC3)c(C)cc2S1(=O)=O`: the pKd was > 9.00. The same measure for `Cc1ccc(C(c2ccn3c(C(F)(F)F)nnc3c2C)C(C)(C)C(=O)O)cc1CN1CC2(CCOCC2)Oc2nc(N[C@@H](C)CCO)ccc2S1(=O)=O` (stereo not given in full): > 9.00; for `Cc1cnc2c(c1)S(=O)(=O)N(Cc1cc(C(CC(=O)O)c3ccn4c(C(F)F)nnc4c3C)ccc1C)C[C@@H]1CCCCN21` (stereo not given in full): > 9.00. Consider `Cc1ccc(C(CC(=O)O)c2ccn3c(C(F)F)nnc3c2C)cc1CN1CC2(CC2)Oc2ncccc2S1(=O)=O` (stereo not given), for which the pKd was > 9.00. The same measure for `CCn1nnc2c(C)c(C(CC(=O)O)c3ccc(C)c(CN4CC5(CC5)Oc5ncccc5S4(=O)=O)n3)ccc21` (stereo not given): > 9.00; for `CCn1nnc2c(C)c([C@H](CC(=O)O)c3ccc(C)c(CN4CC5(CC5)Oc5ncccc5S4(=O)=O)n3)ccc21`: > 9.00; for `Cc1cnc2c(c1)S(=O)(=O)N(Cc1nc([C@@H](CC(=O)O)c3ccn4c(C(F)(F)F)nnc4c3C)ccc1C)C[C@H]1CCCCN21`: > 9.00.

On to `Cc1ccc([C@@H](CC(=O)O)c2ccn3c(C(F)F)nnc3c2C)cc1CN1CC2(CCOCC2)Oc2ccc(F)cc2S1(=O)=O`, for which the negative-log Kd (pKd) was > 9.00. Next, `Cc1ccc([C@@H](c2ccn3c(C(F)F)nnc3c2C)C(C)(C)C(=O)O)nc1CN1CC2(CCOCC2)Oc2nc(OCCN3CCCCC3)c(C)cc2S1(=O)=O`: > 9.00; `Cc1ccc([C@@H](CC(=O)O)c2ccn3c(C(F)(F)F)nnc3c2C)nc1CN1CC2(CC2)Oc2ncc(F)cc2S1(=O)=O`: > 9.00; `Cc1ccc([C@H](CC(=O)O)c2ccn3c(C(F)(F)F)nnc3c2C)cc1CN1CC2(CC2)Oc2ncc(F)cc2S1(=O)=O`: > 9.00. `Cc1ccc([C@@H](CC(=O)O)c2ccn3c(C(F)F)nnc3c2C)cc1CN1CC2(COC2)Oc2ncccc2S1(=O)=O`: the pKd is > 9.00.

For `Cc1ccc([C@H](CC(=O)O)c2ccn3c(C)nnc3c2)cc1CN1C[C@H]2CCCN2c2ncccc2S1(=O)=O`, the pKd is > 9.00. The same measure for `Cc1ccc(C(CC(=O)O)c2ccn3c(C)nnc3c2)cc1CN1CC(C)(C)Oc2ncccc2S1(=O)=O` (stereo not given): > 9.00. The same measure for `Cc1ccc([C@H](CC(=O)O)c2ccn3c(C(F)(F)F)nnc3c2C)nc1CN1C[C@@H]2CCCCN2c2ncccc2S1(=O)=O`: > 9.00. Next, `Cc1cnc2c(c1)S(=O)(=O)N(Cc1cc([C@@H](c3ccc4c(nnn4C4CC4)c3C)C(C)(C)C(=O)O)ccc1C)CC1(CCNCC1)O2`: > 9.00; `Cc1ccc(C(CC(=O)O)c2ccn3c(C4CC4)nnc3c2C)cc1CN1C[C@H]2CCCN2c2ncccc2S1(=O)=O` (stereo not given in full): > 9.00; `Cc1ccc([C@H](CC(=O)O)c2ccn3c(C(F)(F)F)nnc3c2C)cc1CN1C[C@@H]2CCC(F)(F)CN2c2ncccc2S1(=O)=O`: > 9.00. With `Cc1ccc(C(CC(=O)O)c2ccn3c(C(F)(F)F)nnc3c2C)cc1CN1C[C@H]2CCCCN2c2ncccc2S1(=O)=O` (stereo not given in full), the pKd was > 9.00. Regarding `Cc1ccc([C@@H](c2ccn3c(C(F)(F)F)nnc3c2C)C(C)(C)C(=O)O)cc1CN1CC2(CCOCC2)Oc2nc(NCCCO)ccc2S1(=O)=O`, the pKd is > 9.00. The same measure for `COCCCNc1ccc2c(n1)OC1(CC1)CN(Cc1cc([C@H](CC(=O)O)c3ccn4c(C(F)(F)F)nnc4c3C)ccc1C)S2(=O)=O`: > 9.00.

Turning to `Cc1ccc(C(CC(=O)O)c2ccc3c(nnn3C3CC3)c2C)cc1CN1C[C@@H]2CCCCN2c2ccccc2S1(=O)=O` (stereo not given in full), the pKd was > 9.00. Consider `Cc1ccc(C(CC(=O)O)c2ccn3c(C(F)F)nnc3c2C)cc1CN1CC2(CCOCC2)Oc2ncc(F)cc2S1(=O)=O` (stereo not given), for which the pKd is > 9.00.

The values are drawn from ChEMBL document CHEMBL5729293, “Inhibitors of KEAP1-Nrf2 protein-protein interaction” (2022).
